Test [1] has as its target T1, KDR (Homo sapiens, UniProt P35968).
T1 construct: made in house; host or cells: insect cells (Spodoptera frugiperda Sf21, baculovirus)
In words: In vitro receptor tyrosine kinase inhibition test (a), enzyme assay against KDR. The format is biochemical. The settings on record: KDR cytoplasmic domain. The source says:
(a) In Vitro Receptor Tyrosine Kinase Inhibition Test
This assay determines the ability of a test compound to inhibit tyrosine kinase activity. DNA encoding VEGF, FGF or EGF receptor cytoplasmic domains may be obtained by total gene synthesis (Edwards M, International Biotechnology Lab 5(3), 19-25, 1987) or by cloning. These may then be expressed in a suitable expression system to obtain polypeptide with tyrosine kinase activity. […] In the case of the VEGF receptor Flt-1 (Genbank accession number X51602), a 1.7 kb DNA fragment encoding most of the cytoplasmic domain, commencing with methionine 783 and including the termination codon, described by Shibuya et al (Oncogene, 1990, 5: 519-524), was isolated from cDNA and cloned into a baculovirus transplacement vector (for example pAcYM1 (see The Baculovirus Expression System: A Laboratory Guide, L. A. King and R. D. Possee, Chapman and Hall, 1992) or pAc360 or pBlueBacHis (available from Invitrogen Corporation)). This recombinant construct was co-transfected into insect cells (for example Spodoptera frugiperda 21(5f21)) with viral DNA (eg Pharmingen BaculoGold) to prepare recombinant baculovirus. […]

Test [2] has as its target T2, human ether-a-go-go-related-gene (hERG)-encoded potassium channel (Homo sapiens, UniProt Q12809).
T2 construct: expressed in transfected cells; host or cells: Human embryonic kidney (HEK) cells
Put plainly: hERG-encoded potassium channel inhibition test (d). The format is cell-based. The settings on record: HEK cells expressing hERG-encoded channel, tail current, whole cell patch clamp. As for the experimental part:
d) hERG-encoded Potassium Channel Inhibition Test
This assay determines the ability of a test compound to inhibit the tail current flowing through the human ether-a-go-go-related-gene (hERG)-encoded potassium channel.
Human embryonic kidney (HEK) cells expressing the hERG-encoded channel were grown in Minimum Essential Medium Eagle (EMEM; Sigma-Aldrich catalogue number M2279), supplemented with 10% Foetal Calf Serum (Labtech International; product number 4-101-500), 10% M1 serum-free supplement (Egg Technologies; product number 70916) and 0.4 mg/ml Geneticin G418 (Sigma-Aldrich; catalogue number G7034). […]
For each cell recorded, a glass coverslip containing the cells was placed at the bottom of a Perspex chamber containing bath solution (see below) at ambient temperature ([…]). […]
The cell was recorded in the whole cell configuration of the patch clamp technique. […]
The amplitude of the hERG-encoded potassium channel tail current following the step from +40 mV to −50 mV was recorded on-line by Clampex software (Axon Instruments). […]
The effect of each concentration of test compound was quantified by expressing the tail current amplitude in the presence of a given concentration of test compound as a percentage of that in the presence of vehicle. […]

Each structure is given as a SMILES string.

T1 sequence (P35968 786-1356 limits assumed): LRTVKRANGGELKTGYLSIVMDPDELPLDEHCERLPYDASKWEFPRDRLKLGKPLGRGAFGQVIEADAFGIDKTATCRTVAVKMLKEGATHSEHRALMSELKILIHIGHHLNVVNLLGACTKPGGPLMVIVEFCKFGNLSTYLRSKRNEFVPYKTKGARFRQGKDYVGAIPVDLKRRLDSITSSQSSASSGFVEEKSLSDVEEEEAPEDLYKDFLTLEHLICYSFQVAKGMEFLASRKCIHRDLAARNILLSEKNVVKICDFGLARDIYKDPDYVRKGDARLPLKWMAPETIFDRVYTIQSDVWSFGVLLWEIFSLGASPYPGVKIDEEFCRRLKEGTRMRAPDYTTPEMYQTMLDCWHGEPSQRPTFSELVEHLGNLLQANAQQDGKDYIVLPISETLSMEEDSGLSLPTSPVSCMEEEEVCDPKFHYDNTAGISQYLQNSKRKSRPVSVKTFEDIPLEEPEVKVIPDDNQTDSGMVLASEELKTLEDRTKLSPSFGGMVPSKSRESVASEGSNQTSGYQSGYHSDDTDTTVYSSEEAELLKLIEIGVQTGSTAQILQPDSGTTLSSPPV
T2 sequence (Q12809 whole entry): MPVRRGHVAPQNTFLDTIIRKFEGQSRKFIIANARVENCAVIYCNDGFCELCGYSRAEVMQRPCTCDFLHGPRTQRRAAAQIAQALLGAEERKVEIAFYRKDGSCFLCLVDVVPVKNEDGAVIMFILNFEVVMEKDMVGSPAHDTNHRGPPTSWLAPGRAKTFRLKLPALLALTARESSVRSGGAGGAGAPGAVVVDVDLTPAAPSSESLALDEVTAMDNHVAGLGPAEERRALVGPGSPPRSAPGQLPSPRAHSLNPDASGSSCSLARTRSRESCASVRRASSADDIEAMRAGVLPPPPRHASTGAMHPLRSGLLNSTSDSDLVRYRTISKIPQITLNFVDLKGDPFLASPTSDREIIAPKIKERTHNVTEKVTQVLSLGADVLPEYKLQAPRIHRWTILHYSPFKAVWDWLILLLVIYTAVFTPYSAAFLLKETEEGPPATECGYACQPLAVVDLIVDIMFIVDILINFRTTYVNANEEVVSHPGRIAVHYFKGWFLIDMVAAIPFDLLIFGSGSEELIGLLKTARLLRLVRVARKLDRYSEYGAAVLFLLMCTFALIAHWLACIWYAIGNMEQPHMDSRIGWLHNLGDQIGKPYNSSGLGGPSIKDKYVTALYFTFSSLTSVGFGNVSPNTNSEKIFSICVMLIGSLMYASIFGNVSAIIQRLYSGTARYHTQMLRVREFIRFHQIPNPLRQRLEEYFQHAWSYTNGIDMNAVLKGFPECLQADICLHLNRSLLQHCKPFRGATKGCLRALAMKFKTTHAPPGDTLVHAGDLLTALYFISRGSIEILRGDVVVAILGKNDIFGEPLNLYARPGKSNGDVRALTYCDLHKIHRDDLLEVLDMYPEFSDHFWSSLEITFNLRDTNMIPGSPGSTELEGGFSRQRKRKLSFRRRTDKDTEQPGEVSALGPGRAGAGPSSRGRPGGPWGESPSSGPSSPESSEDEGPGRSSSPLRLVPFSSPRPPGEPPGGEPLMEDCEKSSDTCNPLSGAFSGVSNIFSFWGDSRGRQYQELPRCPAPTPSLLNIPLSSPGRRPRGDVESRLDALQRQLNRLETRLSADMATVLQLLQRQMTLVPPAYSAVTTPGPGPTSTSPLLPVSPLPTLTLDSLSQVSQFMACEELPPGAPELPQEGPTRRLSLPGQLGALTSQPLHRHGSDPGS

As to `COc1cc2c(Oc3ccc4[nH]c(C)c(C)c4c3)ncnc2cc1OCCN1CCN(CC(C)=O)CC1` [Example 11, 7-{2-[4-(acetylmethyl)piperazin-1-yl]ethoxy}-4-[(2,3-dimethyl-1H-indol-5-yl)oxy]-6-methoxyquinazoline], the values for the IC50 in test [1] and in test [2] were 0.104 µM and 10.1 µM, respectively.

Broadly, the IC50 is the concentration that gives 50% inhibition. A low value points to higher potency.
